Test results: patent US20090286785A1, “Pyrimidine Derivatives” (Bayer Pharmaceuticals Corporation, priority 2005, published 2009)
Like-named read-outs stand apart in the source and are kept apart here.

Tested on: HCT116 cells
Test: HCT116 cytotoxic activity assay (Alamar Blue, 72 h)
Details: Homo sapiens, HCT-116, 72 h
[1] = read-out: IC50 in the HCT116 cytotoxic activity assay

Method: Human tumor cells, e.g., HCT116 cells, are seeded in a 96-well plate at 3.0×10^3 cells/well and grown in 100 μl of RPMI complete media (Invitrogen Corporation, Grand Island, N.Y.) containing 10% fetal bovine serum (Hyclone, Logan, Utah) and 10 mM HEPES and at 37° C. for 16 h in an incubator with 5% CO2. To each well, 50 μl of additional growth media containing 20 μM to 60 nM concentrations of compound with 0.2% DMSO is added. Cells are grown for another 72 h at 37° C. 20 μl of Alamar Blue (Trek Diagnostic Systems, Inc., Cleveland, Ohio) reagent is added to each well and incubated for 4 h at 37° C. Plates are read in a SpectraMax Gemini (Molecular Devices, CA) with 544 nm excitation and 590 nm emission wavelength. IC50 values are determined by linear regression analysis of log drug concentration versus percent inhibition.

| SMILES | IC50 [1] [nM] | IC50 (read-out: IC50 in the HCT116 cytotoxic activity assay (upper bound of bin)) [nM] |
| --- | --- | --- |
| Nc1nc(Nc2ccc(Oc3ccnc(C(F)(F)F)c3)cc2)cc(-c2ccc3[nH]ccc3c2)n1 [Example 12, 6-(1H-indol-5-yl)-N^4-(4-{[2-(trifluoromethyl)pyridin-4-yl]oxy}phenyl)pyrimidine-2,4-diamine] | ≤ 500 |  |
| Nc1nc(Nc2ccc(Oc3ccnc(C(F)(F)F)c3)cc2)cc(-c2ccc3[nH]cc(CN4CCOCC4)c3c2)n1 [Example 15, 6-[3-(morpholin-4-ylmethyl)-1H-indol-5-yl]-N^4-(4-{[2-(trifluoromethyl)pyridin-4-yl]oxy}phenyl)pyrimidine-2,4-diamine] | > 500 | ≤ 5000 |
